Measurements: patent publication US20080021026A1, “BENZOTHIOPHENE INHIBITORS OF RHO KINASE” (priority 2006, published 2008)
Read-outs that look alike come from different tables or passages of the source.

Assays:
[1] = target: T1, recombinant N-terminal GST-tagged human Rho kinase 1 (ROCK1, amino acids 1-535) (Homo sapiens, UniProt Q13464); experiment: In vitro Rho kinase assay (luciferase-based ATP consumption), ROCK1; format: biochemical
T1 construct: ROCK1, amino acids 1-535; purchased Invitrogen Inc. PV-3691
How it was run: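 GST-ROCK1 (aa 1-535) at 0.82 μg/ml with 100 μg/ml S6 peptide and 3 µM ATP in Tris pH 7.5 buffer with MgCl2, CaCl2, EGTA, BSA; compound added after reaction start, 2 h at 30 °C. Remaining ATP read by luciferase luminescence; efficacy as percent of H-1152P positive control.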

[2] = target: T2, recombinant N-terminal GST-tagged human Rho kinase 2 (ROCK2, amino acids 1-552) (Homo sapiens, UniProt O75116); experiment: In vitro Rho kinase assay (luciferase-based ATP consumption), ROCK2; format: biochemical
T2 construct: ROCK2, amino acids 1-552; purchased Invitrogen Inc. PV3759
How it was run: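 GST-ROCK2 (aa 1-552, 0.82 μg/ml) with 100 μg/ml S6 peptide and 3 µM ATP in Tris pH 7.5 buffer with MgCl2/CaCl2/EGTA/BSA, compound added just after reaction start, 2 h at 30 °C. Remaining ATP read by luciferase luminescence. Efficacy expressed as percentage of H-1152P positive control.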

[3] = recombinant GST-tagged human ROCK1, luciferase-based ATP consumption, read-out: ROCK1 IC50
[4] = recombinant GST-tagged human ROCK2, luciferase-based ATP consumption, read-out: ROCK2 IC50
[5] = ROCK1 IC50, recombinant GST-tagged human ROCK1, luciferase-based ATP consumption
[6] = ROCK2 IC50, recombinant GST-tagged human ROCK2, luciferase-based ATP consumption

T1 sequence (Q13464 1-535): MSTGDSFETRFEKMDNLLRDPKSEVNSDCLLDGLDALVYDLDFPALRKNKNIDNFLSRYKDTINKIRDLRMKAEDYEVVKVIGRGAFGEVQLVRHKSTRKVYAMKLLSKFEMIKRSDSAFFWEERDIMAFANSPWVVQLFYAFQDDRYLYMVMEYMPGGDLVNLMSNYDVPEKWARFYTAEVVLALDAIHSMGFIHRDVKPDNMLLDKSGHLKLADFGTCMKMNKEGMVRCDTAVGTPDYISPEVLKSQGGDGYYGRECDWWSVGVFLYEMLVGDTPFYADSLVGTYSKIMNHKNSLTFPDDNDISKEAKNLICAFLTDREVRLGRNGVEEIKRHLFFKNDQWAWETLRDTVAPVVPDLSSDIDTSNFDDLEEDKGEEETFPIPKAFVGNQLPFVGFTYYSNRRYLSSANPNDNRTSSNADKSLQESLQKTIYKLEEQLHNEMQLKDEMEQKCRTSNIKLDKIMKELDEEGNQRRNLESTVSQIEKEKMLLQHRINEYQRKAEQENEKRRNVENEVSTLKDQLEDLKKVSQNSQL
T2 sequence (O75116 1-552): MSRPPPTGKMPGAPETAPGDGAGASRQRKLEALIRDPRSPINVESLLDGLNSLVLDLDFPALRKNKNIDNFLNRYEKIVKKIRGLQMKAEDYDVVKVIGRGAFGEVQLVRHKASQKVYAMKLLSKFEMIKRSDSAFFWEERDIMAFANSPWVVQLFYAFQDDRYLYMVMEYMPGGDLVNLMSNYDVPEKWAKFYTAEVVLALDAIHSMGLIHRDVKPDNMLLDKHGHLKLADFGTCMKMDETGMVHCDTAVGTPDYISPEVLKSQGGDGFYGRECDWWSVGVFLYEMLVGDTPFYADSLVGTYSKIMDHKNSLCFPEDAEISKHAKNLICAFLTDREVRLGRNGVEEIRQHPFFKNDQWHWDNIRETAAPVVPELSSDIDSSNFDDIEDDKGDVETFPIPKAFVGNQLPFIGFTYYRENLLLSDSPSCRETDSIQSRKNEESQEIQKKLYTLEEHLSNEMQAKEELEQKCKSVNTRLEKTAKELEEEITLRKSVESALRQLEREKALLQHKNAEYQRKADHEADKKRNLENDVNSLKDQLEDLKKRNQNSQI

IC50 [1, 3] [µM]	IC50 [2, 4] [µM]	Compound	IC50 [1, 5] [µM]	IC50 [2, 6] [µM]
< 5	< 5	Cc1c(-c2ccnc(N)n2)sc2ccc(CNC(=O)c3cc([N+](=O)[O-])ccc3F)cc12 [Example 229, Cc1c(sc2ccc(CNC(═O)c3cc(ccc3F)[N+]([O−])═O)cc12)-c4ccnc(N)n4]		
< 5	< 5	Cc1c(-c2ccnc(N)n2)sc2ccc(CNC(=O)c3cc(F)ccc3[N+](=O)[O-])cc12 [Example 230, Cc1c(sc2ccc(CNC(═O)c3cc(F)ccc3[N+]([O−])═O)cc12)-c4ccnc(N)n4]		
< 5	< 5	Cc1c(-c2ccnc(N)n2)sc2ccc(CNC(=O)c3ccc(F)c([N+](=O)[O-])c3)cc12 [Example 231, Cc1c(sc2ccc(CNC(═O)c3ccc(F)c(c3)[N+]([O−])═O)cc12)-c4ccnc(N)n4]		
> 5	< 5	COc1ccc(Cl)cc1C(=O)NCc1ccc2sc(-c3ccnc(N)n3)c(C)c2c1 [Example 232, COc1ccc(Cl)cc1C(═O)NCc2ccc3sc(c(C)c3c2)-c4ccnc(N)n4]		
< 5	< 5	COc1cc(Cl)ccc1C(=O)NCc1ccc2sc(-c3ccnc(N)n3)c(C)c2c1 [Example 233, COc1cc(Cl)ccc1C(═O)NCc2ccc3sc(c(C)c3c2)-c4ccnc(N)n4]		
< 5	< 5	Cc1c(-c2ccnc(N)n2)sc2ccc(CNC(=O)Cc3ccc(O)c(Cl)c3)cc12 [Example 234, Cc1c(sc2ccc(CNC(═O)Cc3ccc(O)c(Cl)c3)cc12)-c4ccnc(N)n4]		
< 5	< 5	COc1cc(C(=O)NCc2ccc3sc(-c4ccnc(N)n4)c(C)c3c2)cc(Cl)n1 [Example 235, COc1cc(cc(Cl)n1)C(═O)NCc2ccc3sc(c(C)c3c2)-c4ccnc(N)n4]		
< 5	< 5	Cc1c(-c2ccnc(N)n2)sc2ccc(CNC(=O)c3ccc4cc(O)ccc4c3)cc12 [Example 236, Cc1c(sc2ccc(CNC(═O)c3ccc4cc(O)ccc4c3)cc12)-c5ccnc(N)n5]		
< 5	< 5	Cc1c(-c2ccnc(N)n2)sc2ccc(CNC(=O)c3c(O)ccc4ccccc34)cc12 [Example 237, Cc1c(sc2ccc(CNC(═O)c3c(O)ccc4ccccc34)cc12)-c5ccnc(N)n5]		
< 5	< 5	Cc1c(-c2ccnc(N)n2)sc2ccc(CNC(=O)c3cc4ccccc4cc3O)cc12 [Example 238, Cc1c(sc2ccc(CNC(═O)c3cc4ccccc4cc3O)cc12)-c5ccnc(N)n5]		
< 5	< 5	Cc1c(-c2ccnc(N)n2)sc2ccc(CNC(=O)c3ccc4cccc(O)c4n3)cc12 [Example 240, Cc1c(sc2ccc(CNC(═O)c3ccc4cccc(O)c4n3)cc12)-c5ccnc(N)n5]		
> 5	< 5	Cc1c(-c2ccnc(N)n2)sc2ccc(CNC(=O)C=Cc3ccc4c(c3)OCO4)cc12 [Example 249, Cc1c(sc2ccc(CNC(═O)C═Cc3ccc4OCOc4c3)cc12)-c5ccnc(N)n5]		
< 5	< 5	COc1cc(C=CC(=O)NCc2ccc3sc(-c4ccnc(N)n4)c(C)c3c2)ccc1O [Example 255, COc1cc(C═CC(═O)NCc2ccc3sc(c(C)c3c2)-c4ccnc(N)n4)ccc1O]		
< 5	< 5	COc1ccc(C=CC(=O)NCc2ccc3sc(-c4ccnc(N)n4)c(C)c3c2)cc1O [Example 256, COc1ccc(C═CC(═O)NCc2ccc3sc(c(C)c3c2)-c4ccnc(N)n4)cc1O]		
< 5	< 5	COc1ccc([N+](=O)[O-])c(C(=O)NCc2ccc3sc(-c4ccnc(N)n4)c(C)c3c2)c1 [Example 259, COc1ccc(c(c1)C(═O)NCc2ccc3sc(c(C)c3c2)-c4ccnc(N)n4)[N+]([O−])═O]		
> 5	< 5	COc1cc(C(=O)NCc2ccc3sc(-c4ccnc(N)n4)c(C)c3c2)cc(OC)c1O [Example 260, COc1cc(cc(OC)c1O)C(═O)NCc2ccc3sc(c(C)c3c2)-c4ccnc(N)n4]		
> 5	< 5	Cc1c(-c2ccnc(N)n2)sc2ccc(CNC(=O)c3cccc(Br)c3)cc12 [Example 262, Cc1c(sc2ccc(CNC(═O)c3cccc(Br)c3)cc12)-c4ccnc(N)n4]		
> 5	< 5	Cc1c(-c2ccnc(N)n2)sc2ccc(CNC(=O)c3ccc(Br)cc3)cc12 [Example 263, Cc1c(sc2ccc(CNC(═O)c3ccc(Br)cc3)cc12)-c4ccnc(N)n4]		
> 5	< 5	Cc1c(-c2ccnc(N)n2)sc2ccc(CNC(=O)c3cccc(Cl)c3[N+](=O)[O-])cc12 [Example 264, Cc1c(sc2ccc(CNC(═O)c3cccc(Cl)c3[N+]([O−])═O)cc12)-c4ccnc(N)n4]		
> 5	< 5	Cc1c(-c2ccnc(N)n2)sc2ccc(CNC(=O)c3ccc(Cl)cc3[N+](=O)[O-])cc12 [Example 267, Cc1c(sc2ccc(CNC(═O)c3ccc(Cl)cc3[N+]([O−])═O)cc12)-c4ccnc(N)n4]		

Second part, the compound before the results:

Compound	IC50 [1, 3] [µM]	IC50 [2, 4] [µM]	IC50 [1, 5] [µM]	IC50 [2, 6] [µM]
Cc1c(-c2ccnc(N)n2)sc2ccc(CNC(=O)c3ccc4ccccc4c3O)cc12 [Example 239, Cc1c(sc2ccc(CNC(═O)c3ccc4ccccc4c3O)cc12)-c5ccnc(N)n5]	> 5	< 5		
Cc1c(-c2ccnc(N)n2)sc2ccc(CNC(=O)C(C)NC(=O)OC(C)(C)C)cc12 (stereo not shown) [Example 241, C[C](NC(═O)OC(C)(C)C)C(═O)NCc1ccc2sc(c(C)c2c1)-c3ccnc(N)n3]	< 5	> 5		
Cc1c(-c2ccnc(N)n2)sc2ccc(CNC(=O)c3ccccc3C(F)(F)F)cc12 [Example 243, Cc1c(sc2ccc(CNC(═O)c3ccccc3C(F)(F)F)cc12)-c4ccnc(N)n4]	< 5	< 5		
Cc1c(-c2ccnc(N)n2)sc2ccc(CNC(=O)CCc3nc4ccccc4[nH]3)cc12 [Example 244, Cc1c(sc2ccc(CNC(═O)CCc3nc4ccccc4[nH]3)cc12)-c5ccnc(N)n5]	< 5	< 5		
Cc1c(-c2ccnc(N)n2)sc2ccc(CNC(=O)c3cccc(Cl)c3Cl)cc12 [Example 245, Cc1c(sc2ccc(CNC(═O)c3cccc(Cl)c3Cl)cc12)-c4ccnc(N)n4]			> 5	< 5
Cc1c(-c2ccnc(N)n2)sc2ccc(CNC(=O)c3ccc(Cl)cc3Cl)cc12 [Example 246, Cc1c(sc2ccc(CNC(═O)c3ccc(Cl)cc3Cl)cc12)-c4ccnc(N)n4]			< 5	< 5
Cc1c(-c2ccnc(N)n2)sc2ccc(CNC(=O)c3cc(Cl)ccc3Cl)cc12 [Example 247, Cc1c(sc2ccc(CNC(═O)c3cc(Cl)ccc3Cl)cc12)-c4ccnc(N)n4]			< 5	< 5
Cc1c(-c2ccnc(N)n2)sc2ccc(CNC(=O)c3cc(F)c(F)c(O)c3F)cc12 [Example 248, Cc1c(sc2ccc(CNC(═O)c3cc(F)c(F)c(O)c3F)cc12)-c4ccnc(N)n4]	< 5	< 5		
Cc1ccc(C(=O)CCC(=O)NCc2ccc3sc(-c4ccnc(N)n4)c(C)c3c2)cc1 [Example 250, Cc1ccc(cc1)C(═O)CCC(═O)NCc2ccc3sc(c(C)c3c2)-c4ccnc(N)n4]	> 5	< 5		
CCCCCc1ccc(C(=O)NCc2ccc3sc(-c4ccnc(N)n4)c(C)c3c2)cc1 [Example 251, CCCCCc1ccc(cc1)C(═O)NCc2ccc3sc(c(C)c3c2)-c4ccnc(N)n4]	< 5	> 5		
Cc1c(-c2ccnc(N)n2)sc2ccc(CNC(=O)c3cc(F)c(F)cc3Cl)cc12 [Example 252, Cc1c(sc2ccc(CNC(═O)c3cc(F)c(F)cc3Cl)cc12)-c4ccnc(N)n4]			< 5	< 5
Cc1c(-c2ccnc(N)n2)sc2ccc(CNC(=O)c3cc(F)c(Cl)cc3F)cc12 [Example 253, Cc1c(sc2ccc(CNC(═O)c3cc(F)c(Cl)cc3F)cc12)-c4ccnc(N)n4]	< 5	< 5		
CCN(CC)c1ccc(C(=O)NCc2ccc3sc(-c4ccnc(N)n4)c(C)c3c2)cc1 [Example 254, CCN(CC)c1ccc(cc1)C(═O)NCc2ccc3sc(c(C)c3c2)-c4ccnc(N)n4]	> 5	< 5		
CCCCOc1ccc(C(=O)NCc2ccc3sc(-c4ccnc(N)n4)c(C)c3c2)cc1 [Example 257, CCCCOc1ccc(cc1)C(═O)NCc2ccc3sc(c(C)c3c2)-c4ccnc(N)n4]	> 5	> 5		
Cc1c(-c2ccnc(N)n2)sc2ccc(CNC(=O)c3cc4cc(Cl)ccc4o3)cc12 [Example 258, Cc1c(sc2ccc(CNC(═O)c3cc4cc(Cl)ccc4o3)cc12)-c5ccnc(N)n5]	< 5	< 5		
Cc1c(-c2ccnc(N)n2)sc2ccc(CNC(=O)c3ccccc3-c3ccccc3)cc12 [Example 261, Cc1c(sc2ccc(CNC(═O)c3ccccc3-c4ccccc4)cc12)-c5ccnc(N)n5]	> 5	< 5		
Cc1c(-c2ccnc(N)n2)sc2ccc(CNC(=O)c3cc([N+](=O)[O-])ccc3Cl)cc12 [Example 265, Cc1c(sc2ccc(CNC(═O)c3cc(ccc3Cl)[N+]([O−])═O)cc12)-c4ccnc(N)n4]			> 5	< 5
Cc1c(-c2ccnc(N)n2)sc2ccc(CNC(=O)c3ccc([N+](=O)[O-])cc3Cl)cc12 [Example 266, Cc1c(sc2ccc(CNC(═O)c3ccc(cc3Cl)[N+]([O−])═O)cc12)-c4ccnc(N)n4]			> 5	< 5
